The results in this text go back to patent US8791267B2, “Biaryl PDE4 inhibitors for treating inflammatory, cardiovascular and CNS disorders” (Decode Genetics EHF, priority 2007, dated 2014).

In one assay the target is PDE4 (Homo sapiens, UniProt Q08499). As to the kind of experiment: In-vitro assay for PDE4 enzymes, real-time enzyme-coupled spectrophotometric assay (Table 9). It is filed as biochemical. Particulars: human PDE4D; activity class, Table 9; read-out: hPDE4D.
The target of the next assay is PDE4B (Homo sapiens, UniProt Q07343). As to the kind of experiment: In-vitro assay for PDE4 enzymes, real-time enzyme-coupled spectrophotometric assay, PDE4B Activity (Table 10). Format: biochemical. Particulars: human PDE4B (hPDE4B), enzyme-coupled spectrophotometric assay; read-out: PDE4B Activity, hPDE4B.
PDE4B, sequence (Q07343 whole entry): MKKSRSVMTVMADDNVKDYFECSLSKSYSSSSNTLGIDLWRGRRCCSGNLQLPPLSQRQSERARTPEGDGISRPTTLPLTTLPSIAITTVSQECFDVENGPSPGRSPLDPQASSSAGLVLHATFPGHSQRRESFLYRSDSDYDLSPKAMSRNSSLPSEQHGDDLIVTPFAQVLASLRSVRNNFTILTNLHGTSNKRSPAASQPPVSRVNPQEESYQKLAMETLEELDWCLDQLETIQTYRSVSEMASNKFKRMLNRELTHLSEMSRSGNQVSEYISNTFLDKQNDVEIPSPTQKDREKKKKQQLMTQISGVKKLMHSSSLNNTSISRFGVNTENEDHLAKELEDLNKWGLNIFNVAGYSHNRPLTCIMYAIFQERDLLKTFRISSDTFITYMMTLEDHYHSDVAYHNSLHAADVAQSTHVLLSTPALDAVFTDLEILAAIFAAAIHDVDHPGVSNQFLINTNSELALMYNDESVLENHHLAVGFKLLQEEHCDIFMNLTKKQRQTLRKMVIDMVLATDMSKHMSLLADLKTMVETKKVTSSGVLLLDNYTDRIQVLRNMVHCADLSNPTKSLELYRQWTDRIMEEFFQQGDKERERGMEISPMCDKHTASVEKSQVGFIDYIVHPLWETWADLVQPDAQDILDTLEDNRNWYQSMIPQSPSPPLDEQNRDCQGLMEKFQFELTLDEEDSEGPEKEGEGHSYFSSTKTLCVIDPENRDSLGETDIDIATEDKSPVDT

Where only a bound is given, the exact number is not on record here.

PDE4, sequence (Q08499 whole entry): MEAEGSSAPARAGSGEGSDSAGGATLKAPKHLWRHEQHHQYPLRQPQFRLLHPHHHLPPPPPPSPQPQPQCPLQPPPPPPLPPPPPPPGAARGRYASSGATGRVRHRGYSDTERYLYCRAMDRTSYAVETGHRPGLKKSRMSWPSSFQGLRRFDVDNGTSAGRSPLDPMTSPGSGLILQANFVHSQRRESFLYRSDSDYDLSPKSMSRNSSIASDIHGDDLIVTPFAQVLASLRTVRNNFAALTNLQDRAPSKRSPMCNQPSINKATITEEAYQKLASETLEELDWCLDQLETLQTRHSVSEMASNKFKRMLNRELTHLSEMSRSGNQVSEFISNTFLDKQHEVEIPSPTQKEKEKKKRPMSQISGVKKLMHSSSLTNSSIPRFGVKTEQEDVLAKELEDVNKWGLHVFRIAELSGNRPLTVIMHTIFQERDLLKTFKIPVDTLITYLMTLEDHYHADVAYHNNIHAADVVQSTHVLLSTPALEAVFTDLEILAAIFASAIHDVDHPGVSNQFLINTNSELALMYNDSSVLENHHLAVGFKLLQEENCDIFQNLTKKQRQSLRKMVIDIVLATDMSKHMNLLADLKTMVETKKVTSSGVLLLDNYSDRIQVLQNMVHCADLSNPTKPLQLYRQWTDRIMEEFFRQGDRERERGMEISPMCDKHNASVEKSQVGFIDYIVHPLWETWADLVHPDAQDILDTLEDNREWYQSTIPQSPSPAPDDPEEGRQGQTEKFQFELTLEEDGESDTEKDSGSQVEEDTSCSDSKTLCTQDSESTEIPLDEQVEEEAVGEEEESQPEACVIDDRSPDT

On to `COc1ccc(Cc2ccc(F)cc2)nc1-c1cccc([N+](=O)[O-])c1` [P-023, 6-(4-fluoro-benzyl)-3-methoxy-2-(3-nitro-phenyl)-pyridine], for which the IC50 on PDE4 was below 5 µM; on PDE4B it was 5 to 20 µM.

`COc1ccc(Cn2cncn2)nc1-c1cccc([N+](=O)[O-])c1` [P-024, 3-methoxy-2-(3-nitro-phenyl)-6-[1,2,4]triazol-1-ylmethyl-pyridine]: the IC50 on PDE4 was below 5 µM; on PDE4B, 21 to 40 µM.

On to `COCc1ccc(OC)c(-c2cccc([N+](=O)[O-])c2)n1` [P-025, 3-methoxy-6-methoxymethyl-2-(3-nitro-phenyl)-pyridine], for which the figures for the IC50 on PDE4 and on PDE4B were 5 to 20 µM and 21 to 40 µM, respectively.

On to `COc1ccc(CN2CCCC2=O)cc1-c1cccc([N+](=O)[O-])c1` [P-029, 1-(6-Methoxy-3′-nitro-biphenyl-3-ylmethyl)-pyrrolidin-2-one], for which the IC50 on PDE4 and on PDE4B was below 5 µM each time.

In the case of `COc1ccc(COC(C)C)nc1-c1cccc([N+](=O)[O-])c1` [P-030, 6-isopropoxymethyl-3-methoxy-2-(3-nitro-phenyl)-pyridine], the IC50 on PDE4 lay within 5 to 20 µM; on PDE4B, 21 to 40 µM.

As to `COc1ccc(CN2CCNC2=O)nc1-c1cccc([N+](=O)[O-])c1` [P-033, 1-[5-methoxy-6-(3-nitro-phenyl)-pyridin-2-ylmethyl]-imidazolidin-2-one], the IC50 at PDE4 and at PDE4B was 5 to 20 µM each time.

Take `COc1ccc(CN2CCNC2=O)cc1-c1cccc([N+](=O)[O-])c1` [P-034, 1-(6-Methoxy-3′-nitro-biphenyl-3-ylmethyl)-imidazolidin-2-one]: the IC50 on PDE4 and on PDE4B was below 5 µM throughout.

Consider `COc1ccc(CN2CCCCS2(=O)=O)cc1-c1cccc([N+](=O)[O-])c1` [P-035, 2-(6-Methoxy-3′-nitro-biphenyl-3-ylmethyl)-[1,2]thiazinane 1,1-dioxide], for which the IC50 at PDE4 and at PDE4B was below 5 µM in each case.

As for `COc1ccc(CN2C(=O)CCC2=O)cc1-c1cccc([N+](=O)[O-])c1` [P-036, 1-(6-Methoxy-3′-nitro-biphenyl-3-ylmethyl)-pyrrolidine-2,5-dione], the results for the IC50 on PDE4 and on PDE4B were below 5 µM and 5 to 20 µM, respectively.

Turning to `COc1ccc(Cn2ccnc2)cc1-c1ccc2c(c1)OCO2` [P-037, 1-(3-Benzo[1,3]dioxol-5-yl-4-methoxy-benzyl)-1H-imidazole], the IC50 on PDE4 and at PDE4B was below 5 µM each time.

With `COc1ccc(COC2CCCC2)nc1-c1cccc([N+](=O)[O-])c1` [P-038, 6-cyclopentyloxymethyl-3-methoxy-2-(3-nitro-phenyl)-pyridine], the IC50 lay in the range of 5 to 20 µM at PDE4 and 21 to 40 µM at PDE4B.

On to `COc1ccc(CN2C(=O)CCCC2=O)cc1-c1cccc([N+](=O)[O-])c1` [P-040, 1-(6-Methoxy-3′-nitro-biphenyl-3-ylmethyl)-piperidine-2,6-dione], for which the IC50 at PDE4 and at PDE4B was 5 to 20 µM in each case.

For the compound `COc1ccc(CN2C(=O)C(=O)c3ccccc32)cc1-c1cccc([N+](=O)[O-])c1` [P-041, 1-(6-Methoxy-3′-nitro-biphenyl-3-ylmethyl)-1H-indole-2,3-dione], the IC50 was 5 to 20 µM at PDE4 and below 5 µM at PDE4B.

Regarding `COc1ccc(CN2C(=O)c3ccccc3C2=O)cc1-c1cccc([N+](=O)[O-])c1` [P-042, 2-(6-Methoxy-3′-nitro-biphenyl-3-ylmethyl)-isoindole-1,3-dione], the IC50 on PDE4 was below 5 µM; on PDE4B, 5 to 20 µM.

As to `COc1ccc(CN2C(=O)c3ccncc3C2=O)cc1-c1cccc([N+](=O)[O-])c1` [P-043, 2-(6-Methoxy-3′-nitro-biphenyl-3-ylmethyl)-pyrrolo[3,4-c]pyridine-1,3-dione], the IC50 is below 5 µM on PDE4 and 5 to 20 µM at PDE4B.

As for `COc1ccc(Cn2cncn2)cc1-c1ccc2c(c1)OCO2` [P-044, 1-(3-Benzo[1,3]dioxol-5-yl-4-methoxy-benzyl)-1H-[1,2,4]triazole], the IC50 at PDE4 and at PDE4B was below 5 µM in each case.

In the case of `COc1ccc(CN2CCCC2=O)cc1-c1ccc2c(c1)OCO2` [P-045, 1-(3-Benzo[1,3]dioxol-5-yl-4-methoxy-benzyl)-pyrrolidin-2-one], the IC50 lay within 20 to 40 µM at PDE4 and 5 to 20 µM on PDE4B.

On to `COc1ccc(Cn2nc3ccccn3c2=O)cc1-c1cccc([N+](=O)[O-])c1` [P-047, 2-(6-Methoxy-3′-nitro-biphenyl-3-ylmethyl)-2H-[1,2,4]triazolo[4,3-a]pyridin-3-one], for which the IC50 is 5 to 20 µM on PDE4 and below 5 µM at PDE4B.

With `COc1ccc(C(=O)c2ccc(F)cc2)c(F)c1-c1cccc([N+](=O)[O-])c1` [P-049], the IC50 at PDE4 and at PDE4B was below 5 µM in each case.

In the case of `COc1ccc(Cc2ccc(F)cc2)c(F)c1-c1cccc([N+](=O)[O-])c1` [P-050], the IC50 at PDE4 and on PDE4B was below 5 µM in each case.

As for `COc1ccc(CN2C(=O)CCC2=O)cc1-c1ccc2c(c1)OCO2` [P-053, 1-(3-Benzo[1,3]dioxol-5-yl-4-methoxy-benzyl)-pyrrolidine-2,5-dione], the IC50 at PDE4 lay within 5 to 20 µM; on PDE4B it was 21 to 40 µM.

On to `COc1ccc(CN2C(=O)c3cccnc3C2=O)cc1-c1cccc([N+](=O)[O-])c1` [P-055, 6-(6-Methoxy-3′-nitro-biphenyl-3-ylmethyl)-pyrrolo[3,4-b]pyridine-5,7-dione], for which the figures for the IC50 on PDE4 and at PDE4B were below 5 µM and 5 to 20 µM, respectively.

On to `O=[N+]([O-])c1cccc(-c2nc(Cc3ccc(F)cc3)ccc2OC(F)F)c1` [P-057], for which the IC50 on PDE4 and on PDE4B was below 5 µM in each case.

As for `COc1ccc(Cn2cncn2)cc1-c1cccc(F)c1` [P-058, 1-(3′-Fluoro-6-methoxy-biphenyl-3-ylmethyl)-1H-[1,2,4]triazole], the IC50 was below 5 µM at PDE4 and 5 to 20 µM at PDE4B.

Turning to `COc1ccc(Cc2c(C)noc2C)cc1-c1ccc2c(c1)OCO2` [P-062, 4-(3-Benzo[1,3]dioxol-5-yl-4-methoxy-benzyl)-3,5-dimethyl-isoxazole], the IC50 at PDE4 and on PDE4B was below 5 µM throughout.

In the case of `COc1ccc(Cn2cnnc2)cc1-c1cccc([N+](=O)[O-])c1` [P-066, 4-(6-Methoxy-3′-nitro-biphenyl-3-ylmethyl)-4H-[1,2,4]triazole], the IC50 on PDE4 and on PDE4B was below 5 µM each time.

For `O=[N+]([O-])c1cccc(-c2cc(Cc3ccc(F)cc3)ccc2OC(F)F)c1` [P-067, 2-Difluoromethoxy-5-(4-fluoro-benzyl)-3′-nitro-biphenyl], the IC50 on PDE4 and on PDE4B was below 5 µM in each case.

`COc1ccc(CN2CC[C@H](O)C2)cc1-c1cccc([N+](=O)[O-])c1` [P-070, (S)-1-(6-Methoxy-3′-nitro-biphenyl-3-ylmethyl)-pyrrolidin-3-ol]: the IC50 was below 5 µM on PDE4 and 21 to 40 µM at PDE4B.

For the compound `COc1ccc(CN2CC[C@@H](O)C2)cc1-c1cccc([N+](=O)[O-])c1` [P-071, (R)-1-(6-Methoxy-3′-nitro-biphenyl-3-ylmethyl)-pyrrolidin-3-01], the figures for the IC50 on PDE4 and on PDE4B were below 5 µM and 21 to 40 µM, respectively.

Turning to `COc1ccc(CN2CCC[C@H]2CO)cc1-c1cccc([N+](=O)[O-])c1` [P-072, [(S)-1-(6-Methoxy-3′-nitro-biphenyl-3-ylmethyl)-pyrrolidin-2-yl]-methanol], the IC50 on PDE4 lay in the range of 5 to 20 µM; on PDE4B, 21 to 40 µM.
